Consider 6 molecules from ChEMBL document CHEMBL3880438, “Identification of modulators of GPR41 or GPR42 activity” (2001).

In test [1] the target is T1, Free fatty acid receptor 3 (Rattus norvegicus) (UniProt B2GV46).
T1 sequence (whole entry): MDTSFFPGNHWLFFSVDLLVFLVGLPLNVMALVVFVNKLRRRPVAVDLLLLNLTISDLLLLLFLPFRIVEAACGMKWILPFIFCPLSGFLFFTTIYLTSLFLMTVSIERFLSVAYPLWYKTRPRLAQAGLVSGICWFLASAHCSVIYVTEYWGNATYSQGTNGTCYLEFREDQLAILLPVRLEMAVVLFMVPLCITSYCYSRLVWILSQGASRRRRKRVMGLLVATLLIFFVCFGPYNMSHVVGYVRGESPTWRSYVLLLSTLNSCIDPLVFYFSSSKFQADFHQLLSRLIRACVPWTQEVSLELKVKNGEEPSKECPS
The test can be described thus: Agonist activity at rat GPR41 expressed in Saccharomyces cerevisiae MMY11 co-expressing chimeric Gpa1/Galpha13 at 0.5 mM to 50 mM incubated for 48 hrs by induction of FUSl-lacZ and FUS1-HIS3 reporter gene induction based pheromone response pathway coupled assay. A general note: Reporter assays use an easily measured gene product as a stand-in for the process of interest.

Test [2] addresses T1, Free fatty acid receptor 3 (Rattus norvegicus). Briefly: Agonist activity at rat GPR41 expressed in Saccharomyces cerevisiae MMY11 co-expressing chimeric Gpa1/Galpha12 at 0.5 mM to 50 mM incubated for 48 hrs by induction of FUSl-lacZ and FUS1-HIS3 reporter gene induction based pheromone response pathway coupled assay.
For test [3], the target named is T2, Free fatty acid receptor 3 (Homo sapiens) (UniProt O14843).
T2 sequence (whole entry): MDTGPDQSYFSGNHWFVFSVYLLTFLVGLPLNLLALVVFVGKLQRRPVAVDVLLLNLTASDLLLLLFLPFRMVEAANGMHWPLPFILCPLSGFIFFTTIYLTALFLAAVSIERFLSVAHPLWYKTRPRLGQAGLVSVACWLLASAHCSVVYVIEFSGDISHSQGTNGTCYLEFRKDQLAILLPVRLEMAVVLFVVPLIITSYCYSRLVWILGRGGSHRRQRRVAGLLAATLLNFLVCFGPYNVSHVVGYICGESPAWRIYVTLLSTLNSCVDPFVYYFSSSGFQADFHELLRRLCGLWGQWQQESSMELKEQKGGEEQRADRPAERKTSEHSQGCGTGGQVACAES
The test can be described thus: Agonist activity at human GPR41 expressed in HEK293T cell membranes co-expressing Go1alpha protein assessed as stimulation of [35S]GTPgammaS binding at 0.1 microM to 0.1 M incubated for 30 mins by scintillation counting method. It counts as functional. The settings on record: HEK-293T. (In general: Binding of GTPγS marks nucleotide exchange on a G protein.)

Test [4] deals with T1, Free fatty acid receptor 3 (Rattus norvegicus). Briefly: Agonist activity at GPR41 in rat primary adipocytes assessed as inhibition of isoprenaline-induced lipolysis by measuring glycerol level after 2 hrs. In kind it is cell-based.
For test [5] the target is unchanged. The test can be described thus: Agonist activity at rat GPR41 expressed in Saccharomyces cerevisiae MMY11 co-expressing chimeric Gpa1/Ga0 at 0.5 mM to 50 mM incubated for 48 hrs by induction of FUSl-lacZ and FUS1-HIS3 reporter gene induction based pheromone response pathway coupled assay.
Test [6] has the same target. The test can be described thus: Agonist activity at rat GPR41 expressed in HEK293T cell membranes co-expressing Go1alpha protein assessed as stimulation of [35S]GTPgammaS binding at 0.1 microM to 0.1 M incubated for 30 mins by scintillation counting method. In kind it is functional. The following applies: HEK-293T.
In test [7] the target is T2, Free fatty acid receptor 3 (Homo sapiens). The test can be described thus: Agonist activity at human GPR41 expressed in HEK293T cell membranes co-expressing Go1lpha protein assessed as stimulation of [35S]GTPgammaS binding at 1 microM to 0.1 M incubated for 30 mins by scintillation counting method. It counts as functional. The settings on record: HEK-293T.

Molecules are shown by their SMILES. Activity calls are given as the source filed them. No cut-off for these calls is given here.

Consider `CCC(=O)[O-].[Na+]` [SODIUM PROPIONATE], for which the result in test [1], in test [2], in test [3], in test [5] and in test [6] was Active. Further, the Activity entry in test [4] is “Dose-dependent effect”.

On to `CC(O)CC(=O)O` (racemic), for which the outcome in test [7] was Active.

For `CCCC(=O)[O-].CCCCC(=O)[O-].[K+].[Na+]`, the outcome in test [3] was Active.

Consider `CCCCC(=O)[O-].[K+]`, for which, in test [4], the outcome was Active.

In the case of `CC(=O)[O-].[Na+]`, the Activity entry in test [4] was “Dose-dependent effect”.

Turning to `CC(=O)[O-].N.O=CO.[Na+]`, the outcome in test [3] and in test [6] was Active. Moreover, the Activity entry in test [4] is “Dose-dependent effect”.
